Source: patent US20050112573A1, “Method of detecting toxic substance” (priority 2001, published 2005)

Test system: yeast genes (level of expressed mRNA)
Test: DNA chip analysis of expressed mRNA of yeast genes after 2 h culture with a toxic chemical substance
Assay type: cell-based, Saccharomyces cerevisiae S288C
Description: Yeast (Saccharomyces cerevtisiae S288C (α SUC2mal mel gap2 CUP1)) were cultured at 25° C. on YPD medium (yeast extract 1%, polypepton 2%, glucose 2%). One of toxic chemical substances was added to the cell at logarithmic growth phase, and the cell was further cultured for two hours. Cell was cultured without any chemical substance in the same condition, and was used as control. Concentrations of the chemical substances were defined to inhibit the growth of the yeast but not lead to death.
After the completion of cultivation, the culture was centrifuged to collect the cells. To the cells, sodium acetate buffer (50 mM sodium acetate, 10 mM EDTA, 1% SDS) was added, and the mixture was shaken at 65° C. for five minutes, followed by returning to room temperature, and obtaining the supernatant, which procedure was repeated two times. To the supernatant, ½ amount of a solution of phenol/chloroform was added, and the mixture was centrifuged to give a supernatant, which was added with an equal amount of chloroform, and the mixture was centrifuged to give a supernatant. To the supernatant, an equal amount of isopropanol containing 0.3 M sodium acetate was added, and the mixture was allowed to stand at room temperature for 30 minutes, after which the mixture was centrifuged to give a sediment of the whole RNAs. Seventy % ethanol was added to the sediment, and the mixture was again centrifuged to give a sediment, which was then dried and dissolved in water. mRNA was isolated from the whole RNAs as followings. In view of the fact that a poly A chain is attached to the 3′ terminus of mRNA, a polynucleotide having a poly T structure which was immobilized on the surface of latex beads was used to trap the mRNA, and then the mRNA was washed and eluted with spine column (Oligotex-dT30<Super>mRNA Purification Kit, Takara). Reverse transcription of the mRNA was conducted with a reverse transcriptase (Super Script II Reverse Transcriptase; catalogue No. 18064-014, GibcoBRL) using fluorescence-labeled nucleotides to give cDNAs that were introduced with Cy3-dUTP or Cy5-dUTP during the reverse transcription.
The labeled cDNAs were dissolved in TE buffer (10 mM Tris-HCl/1 mM EDTA, pH8.0), and the solution was dropped on the DNA chip containing the whole genes of yeast (DNA Chip Research Inc. Japan) so that the cDNAs were hybridized on the DNA chip at 65° C. for over 12 hours. The fluoresces intensity of the DNA chip was read with a scanner, and the ratio relative to the fluorescence intensity resulting from the absence of chemical substance was estimated as the following, which is shown in Tables 1 to 9: [formula]
In the Tables, “Intensity” indicated in the rightmost column is a value of the level of expressed mRNA of each gene in control cells as divided by the average level of the expressions of the whole genes.

COc1cc(CNC(=O)CCCCC=CC(C)C)ccc1O [(12), 8-methyl-N-vanillyl-6-nonenamide]
level of expressed mRNA in the presence of chemical substance/in its absence (gene YML110C): 1.1
The level of expressed mRNA in the presence of chemical substance/absence: YML118W (gene YML118W): 0.9
The level of expressed mRNA in the presence of chemical substance/absence: YMR068W (gene YMR068W): 0.7
The level of expressed mRNA in the presence of chemical substance/absence: YMR071C (gene YMR071C): 0.7
level of expressed mRNA in the presence of chemical substance/in its absence (gene YMR105C): 1.7
The level of expressed mRNA in the presence of chemical substance/absence: YMR114C (gene YMR114C): 0.9
The level of expressed mRNA in the presence of chemical substance/absence: YMR115W (gene YMR115W): 1.0
The level of expressed mRNA in the presence of chemical substance/absence: YMR160W (gene YMR160W): 1.0
level of expressed mRNA in the presence of chemical substance/in its absence (gene YMR189W): 0.6
The level of expressed mRNA in the presence of chemical substance/absence: YMR258C (gene YMR258C): 0.9
level of expressed mRNA in the presence of chemical substance/in its absence (gene YMR271C): 1.3
level of expressed mRNA in the presence of chemical substance/in its absence (gene YMR272C): 1.2
level of expressed mRNA in the presence of chemical substance/in its absence (gene YMR296C): 0.8
level of expressed mRNA in the presence of chemical substance/in its absence (gene YNL012W): 1.3
The level of expressed mRNA in the presence of chemical substance/absence: YNL026W (gene YNL026W): 0.9
level of expressed mRNA in the presence of chemical substance/in its absence (gene YNL037C): 1.3
level of expressed mRNA in the presence of chemical substance/in its absence (gene YNL045W): 0.9
The level of expressed mRNA in the presence of chemical substance/absence: YNL058C (gene YNL058C): 1.0
The level of expressed mRNA in the presence of chemical substance/absence: YNL063W (gene YNL063W): 1.0
level of expressed mRNA in the presence of chemical substance/in its absence (gene YNL104C): 1.1
level of expressed mRNA in the presence of chemical substance/in its absence (gene YNL106C): 0.8
level of expressed mRNA in the presence of chemical substance/in its absence (gene YNL130C): 0.9
level of expressed mRNA in the presence of chemical substance/in its absence (gene YNL169C): 1.0
The level of expressed mRNA in the presence of chemical substance/absence: YNL176C (gene YNL176C): 0.6
The level of expressed mRNA in the presence of chemical substance/absence: YNL181W (gene YNL181W): 0.8
The level of expressed mRNA in the presence of chemical substance/absence: YNL191W (gene YNL191W): 0.5
The level of expressed mRNA in the presence of chemical substance/absence: YNL194C (gene YNL194C): 0.5
The level of expressed mRNA in the presence of chemical substance/absence: YNL200C (gene YNL200C): 0.9
The level of expressed mRNA in the presence of chemical substance/absence: YNL212W (gene YNL212W): 0.8
level of expressed mRNA in the presence of chemical substance/in its absence (gene YNL231C): 1.8
The level of expressed mRNA in the presence of chemical substance/absence: YNL253W (gene YNL253W): 0.8
The level of expressed mRNA in the presence of chemical substance/absence: YNL265C (gene YNL265C): 0.8
The level of expressed mRNA in the presence of chemical substance/absence: YNL276C (gene YNL276C): 0.9
level of expressed mRNA in the presence of chemical substance/in its absence (gene YNL322C): 0.7
level of expressed mRNA in the presence of chemical substance/in its absence (gene YNR002C): 1.2
level of expressed mRNA in the presence of chemical substance/in its absence (gene YNR019W): 1.0
level of expressed mRNA in the presence of chemical substance/in its absence (gene YNR033W): 1.1
The level of expressed mRNA in the presence of chemical substance/absence: YNR051C (gene YNR051C): 0.9
level of expressed mRNA in the presence of chemical substance/in its absence (gene YNR059W): 0.8
The level of expressed mRNA in the presence of chemical substance/absence: YOL026C (gene YOL026C): 0.9
The level of expressed mRNA in the presence of chemical substance/absence: YOL030W (gene YOL030W): 0.9
level of expressed mRNA in the presence of chemical substance/in its absence (gene YOL058W): 1.3
level of expressed mRNA in the presence of chemical substance/in its absence (gene YOL126C): 1.1
level of expressed mRNA in the presence of chemical substance/in its absence (gene YOL143C): 1.2
level of expressed mRNA in the presence of chemical substance/in its absence (gene YOL153C): 1.9
level of expressed mRNA in the presence of chemical substance/in its absence (gene YOL157C): 1.2
The level of expressed mRNA in the presence of chemical substance/absence: YOR022C (gene YOR022C): 0.8
The level of expressed mRNA in the presence of chemical substance/absence: YOR087W (gene YOR087W): 0.8
The level of expressed mRNA in the presence of chemical substance/absence: YOR088W (gene YOR088W): 0.6
level of expressed mRNA in the presence of chemical substance/in its absence (gene YOR099W): 1.1
level of expressed mRNA in the presence of chemical substance/in its absence (gene YOR130C): 0.9
level of expressed mRNA in the presence of chemical substance/in its absence (gene YOR136W): 1.2
The level of expressed mRNA in the presence of chemical substance/absence: YOR138C (gene YOR138C): 0.9
The level of expressed mRNA in the presence of chemical substance/absence: YOR155C (gene YOR155C): 0.5
The level of expressed mRNA in the presence of chemical substance/absence: YOR253W (gene YOR253W): 0.7
The level of expressed mRNA in the presence of chemical substance/absence: YOR267C (gene YOR267C): 0.9
The level of expressed mRNA in the presence of chemical substance/absence: YOR325W (gene YOR325W): 0.9
level of expressed mRNA in the presence of chemical substance/in its absence (gene YOR336W): 1.0
